Values of other authors in US20230405095A1, “DOSING REGIMEN” (VIIV HEALTHCARE UK (NO. 7) LIMITED, priority 2022, published 2023).

B1: rHuPH20: soluble hyaluronidase composition produced upon expression in a mammalian cell of nucleic acid encoding residues 36-482 of SEQ ID NO:1 (protein, listed as Homo sapiens)
chain: LNFRAPPVIPNVPFLWAWNAPSEFCLGKFDEPLDMSLFSFIGSPRINATGQGVTIFYVDRLGYYPYIDSITGVTVNGGIPQKISLQDHLDKAKKDITFYMPVDNLGMAVIDWEEWRPTWARNWKPKDVYKNRSIELVQQQNVQLSLTEATEKAKQEFEKAGKDFLVETIKLGKLLRPNHLWGYYLFPDCYNHHYKKPGYNGSCFNVEIKRNDDLSWLWNESTALYPSIYLNTQQSPVAATLYVRNRVREAIRVSKIPDAKSPLPVFAYTRIVFTDQVLKFLSQDELVYTFGETVALGASGIVIWGTLSIMRSMKSCLLLDNYMETILNPYIINVTLAAKMCSQVLCQEQGVCIRKNWNSSDYLHLNPDNFAIQLEKGGKFTVRGKPTLEDLEQFSEKFYCSCYSTLSCKEKADVKDTDAVDVCIADGVCIDAFLKPPMETEEPQIFY
modifications: precursor human PH20

Tests used:
[1] = after injection of hyaluronidase; cited from earlier work
[2] = in vivo, sc; cited from earlier work

| Molecule | time until permeability barrier is restored to pre-injection levels [1] | subcutaneous doses shown to be well tolerated [2] |
| --- | --- | --- |
| hyaluronidase | 24 to 48 h | – |
| B1 | – | up to 96,000 U |
